The numbers were not newly measured in publication PMC5882164, “A novel calcimimetic agent, evocalcet (MT-4580/KHK7580), suppresses the parathyroid cell function with little effect on the gastrointestinal tract or CYP isozymes in vivo and in vitro” (PLoS ONE, 2018), which cites them from elsewhere.

Where a name gives a salt, the structure may show the parent alone.

For the data set the following is noted: rats; no reference given; cited from earlier work.

Take `C[C@@H](NCCCc1cccc(C(F)(F)F)c1)c1cccc2ccccc12` [cinacalcet, Cinacalcet hydrochloride, reference compound]: the bioavailability was 1%-2%.
